Laboratory results published in patent publication US20140220100A1, “VACCINE COMPOSITION FOR TRANSDERMAL ADMINISTRATION” (NITTO DENKO CORPORATION, priority 2013, published 2014).

System: IFN-γ-producing cells (spleen cells co-cultured with antigen peptide)
Experiment: Immunity Induction Test 1 in mouse (liquid formulation for external use), ELISPOT
Format: in vivo
Conditions: summary of Tables 1, 2 and 4; transdermal HER2/neu E75 peptide vaccine composition
Description: A cellulose non-woven fabric (area 0.8 cm^2) was attached to a middle part of an adhesive tape for fixing to prepare a composite substrate. The non-woven fabric part of the composite substrate was immersed with 67 μL of the liquid formulation for external use. Thus a sample for immunity induction test was prepared.
The liquid formulations for external use prepared as above described were used to perform an immunity induction test using a model mouse for immunological evaluation. The immunity induction level was evaluated by ELISPOT method. Specifically, the hair of the back skin of a mouse was cut, and the mouse was kept in a period for recovering from the skin damage. Thereafter, each sample was administered to the back skin of the mouse for a predetermined period, and then removed. After keeping the mouse for a predetermined day, the level of the cellular immunity induction specific for the antigen was evaluated. On a predetermined day after the administration, the spleen of the mouse was excised to prepare a suspension of the spleen cells. Spleen cells (3×10^6 cells/well) and an antigen peptide (100 μM) were added together with a culture solution into a well of ELISPOT plate containing an immobilized anti-mouse IFN-γ […], and co-cultured at 37° C. in 5% CO2 for 20 hours. The spot number of IFN-γ-producing cells was evaluated by ELISPOT method (the number of the spot/3×10^6 cells). The dosage of the liquid formulation for external use was all 67 μL as described above, and the administration was performed once (24 hr/week), the spleen was excised 6 days after the administration.
The results of the immunity induction test, and the measurement results of TSLP level and transepidermal water loss are shown in Table 1.

Compound | promotion of induction of cellular immunity by addition of a pharmacologically acceptable acid as second cellular immunity induction promoter
CCCCCCCCCC(=O)O [decanoic acid] | effective
CC(C)CCCCCCCCCCCCCCC(=O)O [isostearic acid] | effective
CC(O)C(=O)O (stereo not drawn) [lactic acid] | effective
CCCCCCCCCCCC(=O)O [lauric acid] | effective
O=C(O)/C=C\C(=O)O [maleic acid] | effective
O=C(O)CC(O)C(=O)O (stereo not drawn) [malic acid] | effective
CS(=O)(=O)O [methanesulfonic acid] | effective
CCCCCCCCCCCCCC(=O)O [myristic acid] | effective
CCCCCCCC/C=C\CCCCCCCC(=O)O [oleic acid] | effective
CCCCCCCCCCCCCCCC(=O)O [palmitic acid] | effective
O=C(O)c1ccccc1O [salicylic acid] | effective
CCCCCCCCCCCCCCCCCC(=O)O [stearic acid] | effective
